Reference: patent publication US20110218158A1, “DNA CYTOSINE DEAMINASE INHIBITORS” (priority 2008, published 2011)

Biological target: T1, APOBEC3G (Homo sapiens, UniProt Q9HC16)
T1 construct: expressed in transfected cells; crude lysate treated with RNase A
Assay: Fluorescence-based APOBEC3G DNA cytosine deaminase assay for HTS, APOBEC3G containing cell lysate
Type: biochemical
Conditions: for inhibited cytosine deaminase activity (FIG. 5): LOPAC1280 library screened in quadruplicate, cell lysate
Excerpt: FIG. 4 contains a schematic of a fluorescence based APOBEC3G DNA cytosine deaminase activity assay. The single-strand DNA oligonucleotide substrate has 3 features: i) an APOBEC3G deamination target cite 5′CCCA (with the 3rd C strongly preferred by APOBEC3G), ii) a fluorescent 6-FAM label on the 5′ end (excitable by 490 nm wavelength light) and iii) a 6-FAM ‘quenching’ molecule TAMRA on the 3′ end. This intact ssDNA substrate emits low levels of background fluorescence because the 6-FAM is quenched by the nearby TAMRA. Low-molecular mass (LMM) APOBEC3G, derived from an RNase sensitive high-molecular mass (HMM) cellular complex, efficiently deaminates the indicated cytosine base yielding a uracil. Uracil DNA glycosylase excises the uracil base, which creates an a-basic site that is sensitive to hydrolytic attack by the hydroxide ion of NaOH or heated water (H2O). Finally, cleavage of the ssDNA frees 6-FAM from inhibition by TAMRA and results in fluorescence (490 nm light is used to excite 6-FAM and fluorescence is detected at 517 nm).
APOBEC3G containing cell lysates were prepared from near-confluent APOBEC3G expressing 293 stable cell line (211-21, Harris et al., Cell 2003). DMEM growth medium was aspirated and the cells suspended in 1xPBS, 1 mM EDTA, pH 7.4. The cells were pelleted at 1.2K rpm for 5-10 minutes. The supernatant was aspirated and the tube containing the pelleted cells was placed on ice. Thirty mL of lysis buffer (25 mM HEPES, pH7.4, 150 mM NaCl, 0.5% Triton X-100, 1 mM EDTA, 1 mM MgCl2, 1 mM ZnCl2, 10% Glycerol, and Roche EDTA free complete protease inhibitor (added before use)) was added per 3-5 g cell pellet along with 20 μg/mL RNase A (from Qiagen, catalog no. 19101, 100 mg/ml RNase A solution) and the cells suspended by pipetting. The cells were transferred to a cold homogenizer and homogenized for 10 strokes. […] The protein concentration in the cell lysate was quantified using a Bio-Rad protein assay kit or DC protein assay kit, following the manufacturer's instructions.
A fluorescence-based deaminase activity assay for HTS was performed as follows: 1) 20 μl of the crude cell lysate (15 μg protein, diluted in cell lysis buffer, pH7.4) was placed into 384 well plates using Perkin Elmer flexdrop. […] 5) 3 μl N HCl+27 μl 2 M Tris.Cl (pH7.9) was added using Perkin Elmer flexdrop, mixed by shaking, and fluorescence read with excitation at 492 nm and emission at 517 nm at room temperature in LJL Analyst AD.
A 1280 compound library (LOPAC^1280™, from Sigma-Aldrich) was screened in quadruplicate using the method set forth in Example 1. […] In these experiments, each compound was evaluated a total of four times—twice on one day and twice more on the following day. […]

T1 sequence (Q9HC16 whole entry): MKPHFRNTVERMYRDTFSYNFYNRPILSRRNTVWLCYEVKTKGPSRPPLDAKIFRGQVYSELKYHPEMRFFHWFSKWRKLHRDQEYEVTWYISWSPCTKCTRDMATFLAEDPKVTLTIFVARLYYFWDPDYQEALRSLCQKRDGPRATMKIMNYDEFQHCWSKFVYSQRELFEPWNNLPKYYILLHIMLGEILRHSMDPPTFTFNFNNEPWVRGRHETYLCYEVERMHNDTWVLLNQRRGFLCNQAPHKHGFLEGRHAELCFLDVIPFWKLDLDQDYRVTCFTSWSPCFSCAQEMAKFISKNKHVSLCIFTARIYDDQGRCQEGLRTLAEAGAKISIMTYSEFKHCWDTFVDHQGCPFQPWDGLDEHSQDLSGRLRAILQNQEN

SMILES	inhibited cytosine deaminase activity (FIG. 5)	inhibition at 10 µM (repeated screen, cell lysate incubated with 10 μM solution of the compound in DMSO, read-out: inhibition of fluorescence relative to positive controls (primary active))
Cc1nc(N=Nc2cc(S(=O)(=O)O)c3cc([N+](=O)[O-])cc(S(=O)(=O)O)c3c2)c(COP(=O)(O)O)c(C=O)c1O [PPNDS]	Inhibitors of cytosine deaminase	
O=C(O)C1=CC(=C(c2ccc(O)c(C(=O)O)c2)c2ccc(O)c(C(=O)O)c2)C=CC1=O [ATA]	Inhibitors of cytosine deaminase	
O=C(O)c1cc[c]([Hg][Cl])cc1 [4-chloromercuribenzoic acid]	Inhibitors of cytosine deaminase	
Cc1ccc(C(=O)Nc2ccc(S(=O)(=O)O)c3cc(S(=O)(=O)O)cc(S(=O)(=O)O)c23)cc1NC(=O)c1cccc(NC(=O)Nc2cccc(C(=O)Nc3cc(C(=O)Nc4ccc(S(=O)(=O)O)c5cc(S(=O)(=O)O)cc(S(=O)(=O)O)c45)ccc3C)c2)c1 [suramin]		≥ 35%
